Test: isobaric coefficient of expansion
Conditions: Liquid, Micro DSCII

CCCCn1cc[n+](C)c1.COS(=O)(=O)[O-] [1-butyl-3-methylimidazolium methyl sulfate]
isobaric coefficient of expansion
Conditions	5000 kPa	10000 kPa	15000 kPa	20000 kPa	25000 kPa	30000 kPa	35000 kPa	40000 kPa	45000 kPa	50000 kPa
278.15 K	0.000563 1/K	0.000556 1/K	0.00055 1/K	0.000545 1/K	0.00054 1/K	0.000535 1/K	0.000531 1/K	0.000527 1/K	0.000521 1/K	0.000516 1/K
288.15 K	0.000557 1/K	0.00055 1/K	0.000543 1/K	0.000539 1/K	0.000537 1/K	0.00053 1/K	0.000527 1/K	0.00052 1/K	0.000514 1/K	0.000513 1/K
298.15 K	0.000549 1/K	0.000547 1/K	0.000539 1/K	0.000533 1/K	0.000529 1/K	0.000524 1/K	0.000518 1/K	0.000513 1/K	0.00051 1/K	0.000507 1/K
308.15 K	0.000544 1/K	0.000538 1/K	0.000533 1/K	0.000527 1/K	0.000522 1/K	0.000517 1/K	0.000512 1/K	0.000509 1/K	0.000504 1/K	0.0005 1/K
318.15 K	0.000538 1/K	0.000534 1/K	0.00053 1/K	0.000522 1/K	0.000517 1/K	0.000513 1/K	0.000508 1/K	0.000504 1/K	0.000499 1/K	0.000494 1/K
328.15 K	0.000533 1/K	0.000529 1/K	0.000524 1/K	0.000519 1/K	0.000512 1/K	0.000508 1/K	0.000503 1/K	0.000498 1/K	0.000493 1/K	0.000489 1/K
338.15 K	0.00053 1/K	0.000525 1/K	0.000521 1/K	0.000514 1/K	0.000508 1/K	0.000506 1/K	0.000499 1/K	0.000496 1/K	0.000491 1/K	0.000489 1/K
348.15 K	0.000527 1/K	0.000524 1/K	0.000517 1/K	0.000512 1/K	0.000506 1/K	0.000502 1/K	0.000499 1/K	0.000494 1/K	0.00049 1/K	0.000486 1/K

CCCCn1cc[n+](C)c1.[F][Sb-]([F])([F])([F])([F])[F] [1-butyl-3-methylimidazolium hexafluoroantimonate]
isobaric coefficient of expansion
Conditions	5000 kPa	10000 kPa	15000 kPa	20000 kPa	25000 kPa	30000 kPa	35000 kPa	40000 kPa	45000 kPa	50000 kPa
278.15 K	0.000636 1/K	0.000627 1/K	0.000619 1/K	0.000614 1/K	0.000607 1/K	0.0006 1/K	0.000593 1/K	0.000589 1/K	0.000582 1/K	0.000575 1/K
288.15 K	0.00063 1/K	0.000621 1/K	0.000614 1/K	0.000609 1/K	0.000603 1/K	0.000596 1/K	0.000589 1/K	0.000582 1/K	0.000575 1/K	0.000573 1/K
298.15 K	0.000624 1/K	0.000619 1/K	0.000609 1/K	0.000602 1/K	0.000597 1/K	0.000588 1/K	0.000581 1/K	0.000576 1/K	0.000571 1/K	0.000566 1/K
308.15 K	0.00062 1/K	0.00061 1/K	0.000604 1/K	0.000596 1/K	0.000589 1/K	0.000583 1/K	0.000576 1/K	0.000571 1/K	0.000563 1/K	0.000558 1/K
318.15 K	0.000612 1/K	0.000609 1/K	0.000599 1/K	0.000591 1/K	0.000584 1/K	0.000577 1/K	0.00057 1/K	0.000564 1/K	0.000557 1/K	0.00055 1/K
328.15 K	0.000609 1/K	0.000601 1/K	0.000595 1/K	0.000589 1/K	0.00058 1/K	0.000573 1/K	0.000566 1/K	0.000559 1/K	0.000553 1/K	0.000547 1/K
338.15 K	0.000607 1/K	0.000599 1/K	0.000593 1/K	0.000585 1/K	0.000575 1/K	0.000569 1/K	0.000563 1/K	0.000556 1/K	0.000549 1/K	0.000545 1/K
348.15 K	0.000602 1/K	0.000597 1/K	0.000588 1/K	0.000579 1/K	0.000574 1/K	0.000567 1/K	0.000562 1/K	0.000555 1/K	0.000549 1/K	0.000542 1/K

CCCC[n+]1ccn(C)c1.O=S(=O)([N-]S(=O)(=O)C(F)(F)F)C(F)(F)F
isobaric coefficient of expansion
Conditions	5000 kPa	10000 kPa	15000 kPa	20000 kPa	25000 kPa	30000 kPa	35000 kPa	40000 kPa	45000 kPa	50000 kPa
278.15 K	0.000672 1/K	0.000661 1/K	0.000651 1/K	0.000643 1/K	0.000632 1/K	0.000627 1/K	0.000618 1/K	0.000612 1/K	0.000602 1/K	0.000594 1/K
288.15 K	0.000665 1/K	0.000656 1/K	0.000646 1/K	0.000638 1/K	0.000632 1/K	0.000622 1/K	0.000615 1/K	0.000606 1/K	0.000599 1/K	0.000594 1/K
298.15 K	0.000662 1/K	0.000653 1/K	0.000642 1/K	0.000633 1/K	0.000626 1/K	0.000616 1/K	0.000607 1/K	0.000599 1/K	0.000592 1/K	0.000586 1/K
308.15 K	0.000657 1/K	0.000647 1/K	0.000636 1/K	0.000627 1/K	0.000617 1/K	0.00061 1/K	0.000602 1/K	0.000595 1/K	0.000586 1/K	0.000578 1/K
318.15 K	0.00065 1/K	0.000646 1/K	0.000634 1/K	0.000623 1/K	0.000614 1/K	0.000605 1/K	0.000597 1/K	0.000588 1/K	0.000581 1/K	0.000573 1/K
328.15 K	0.000665 1/K	0.000649 1/K	0.000636 1/K	0.000625 1/K	0.000614 1/K	0.000603 1/K	0.000595 1/K	0.000582 1/K	0.000578 1/K	0.000569 1/K
338.15 K	0.000646 1/K	0.000635 1/K	0.000625 1/K	0.000615 1/K	0.000605 1/K	0.000597 1/K	0.000587 1/K	0.00058 1/K	0.000573 1/K	0.000566 1/K
348.15 K	0.000653 1/K	0.000639 1/K	0.000623 1/K	0.000613 1/K	0.000604 1/K	0.000595 1/K	0.000586 1/K	0.000578 1/K	0.000569 1/K	0.000563 1/K

CCCCn1cc[n+](C)c1.O=S(=O)([O-])C(F)(F)F [1-butyl-3-methylimidazolium trifluoromethanesulfonate]
isobaric coefficient of expansion
Conditions	5000 kPa	10000 kPa	15000 kPa	20000 kPa	25000 kPa	30000 kPa	35000 kPa	40000 kPa	45000 kPa	50000 kPa
278.15 K	0.000621 1/K	0.000612 1/K	0.000603 1/K	0.000599 1/K	0.00059 1/K	0.000585 1/K	0.000579 1/K	0.000575 1/K	0.000566 1/K	0.000561 1/K
288.15 K	0.000617 1/K	0.000607 1/K	0.000599 1/K	0.000593 1/K	0.000588 1/K	0.00058 1/K	0.000574 1/K	0.000566 1/K	0.000561 1/K	0.000558 1/K
298.15 K	0.00061 1/K	0.000604 1/K	0.000595 1/K	0.000588 1/K	0.000581 1/K	0.000574 1/K	0.000566 1/K	0.000559 1/K	0.000554 1/K	0.000549 1/K
308.15 K	0.000606 1/K	0.000597 1/K	0.000587 1/K	0.000581 1/K	0.000574 1/K	0.000568 1/K	0.000562 1/K	0.000556 1/K	0.000548 1/K	0.000543 1/K
318.15 K	0.0006 1/K	0.000595 1/K	0.000585 1/K	0.000579 1/K	0.000571 1/K	0.000564 1/K	0.000557 1/K	0.000551 1/K	0.000544 1/K	0.000539 1/K
328.15 K	0.000596 1/K	0.000586 1/K	0.000581 1/K	0.000574 1/K	0.000565 1/K	0.000559 1/K	0.000552 1/K	0.000544 1/K	0.000538 1/K	0.000534 1/K
338.15 K	0.000594 1/K	0.000585 1/K	0.000578 1/K	0.000571 1/K	0.000562 1/K	0.000556 1/K	0.000548 1/K	0.000542 1/K	0.000537 1/K	0.000532 1/K
348.15 K	0.000591 1/K	0.000583 1/K	0.000574 1/K	0.000568 1/K	0.000559 1/K	0.000552 1/K	0.000547 1/K	0.00054 1/K	0.000535 1/K	0.00053 1/K

CCCCn1cc[n+](C)c1.F[B-](F)(F)F [1-butyl-3-methylimidazolium tetrafluoroborate]
isobaric coefficient of expansion
Conditions	5000 kPa	10000 kPa	15000 kPa	20000 kPa	25000 kPa	30000 kPa	35000 kPa	40000 kPa	45000 kPa	50000 kPa
278.15 K	0.000605 1/K	0.0006 1/K	0.000592 1/K	0.000586 1/K	0.000581 1/K	0.000575 1/K	0.000571 1/K	0.000564 1/K	0.000559 1/K	0.000553 1/K
288.15 K	0.000598 1/K	0.000592 1/K	0.000587 1/K	0.000582 1/K	0.000577 1/K	0.00057 1/K	0.000566 1/K	0.000557 1/K	0.000555 1/K	0.000553 1/K
298.15 K	0.000594 1/K	0.00059 1/K	0.000581 1/K	0.000575 1/K	0.000571 1/K	0.000563 1/K	0.000558 1/K	0.000552 1/K	0.000547 1/K	0.000545 1/K
308.15 K	0.000588 1/K	0.00058 1/K	0.000575 1/K	0.000569 1/K	0.000561 1/K	0.000557 1/K	0.00055 1/K	0.000547 1/K	0.000542 1/K	0.000535 1/K
318.15 K	0.00058 1/K	0.000577 1/K	0.00057 1/K	0.000561 1/K	0.000558 1/K	0.000552 1/K	0.000547 1/K	0.000543 1/K	0.000536 1/K	0.000532 1/K
328.15 K	0.000576 1/K	0.00057 1/K	0.000563 1/K	0.000559 1/K	0.000551 1/K	0.000544 1/K	0.000541 1/K	0.000534 1/K	0.000528 1/K	0.000523 1/K
338.15 K	0.000571 1/K	0.000566 1/K	0.000561 1/K	0.000552 1/K	0.000547 1/K	0.000543 1/K	0.000536 1/K	0.000531 1/K	0.000526 1/K	0.000522 1/K
348.15 K	0.000569 1/K	0.000566 1/K	0.000557 1/K	0.000552 1/K	0.000545 1/K	0.000539 1/K	0.000535 1/K	0.000528 1/K	0.000524 1/K	0.00052 1/K

— the NIST ThermoML archive (doi:10.1021/je900407u)
